Measured values reported in patent US20140303258A1, “Method of solubilizing insoluble bioactive compounds using triterpene glycosides and compositions thereof” (priority 2013, published 2014).

Columns and labels:
[1] = Behaviour of the bioactive in distilled water at 37° C. without solubilizer; type: physicochemical; conditions: 2 grams in 200 ml distilled water, no solubilizer
Protocol: (§1) • A. Two beakers each containing 200 ml distilled water (37° C.) were taken. • B. To each beaker, 2 grams commercially available curcuminoids (Curcumin C3 Complex®) was added and gently mixed. […] To the first beaker, 0.35 gram of Bacopa glycosides including 25% w/w to 75% w/w of total Bacosides (Bacopin®) was added and gently mixed for about 15 minutes. […] This corresponded to a Critical Micelle Concentration (CMC) of 17.5% • D. To the second beaker, 0.40 gram of Centella glycosides including at least 8% w/w of total triterpenes (Centellin®) was added and gently mixed for about 15 minutes. […] This corresponded to Critical Micelle Concentration (CMC) of 20.0%.
(§2) • A. Five beakers each containing 200 ml distilled water at 37° C. were taken. To 3 beakers were added 2 gm of bioactive compounds forskolin (Forslean® 95%), boswellic acids (Boswellin® 70%) and pterostilbene 99% respectively. To the other 2 beakers were added 2 gm of Saw Palmetto extract 85% and Ginger Soft extract SCFE 35% respectively. […] The Critical Micelle Concentration (CMC) for each system was determined (Table A; FIGS. 3A, 3B, 3C, 3D and 3E)
(§3) • A. To a beaker containing 200 ml distilled water (37° C.) was added 2 grams of tetrahydrocurcuminoids (C3 Reduct®). […] The majority (˜70%) of tetrahydrocurcuminoids was not observable at the bottom of the beaker anymore due to formation of emulsion (FIG. 4)

[2] = type: physicochemical
Protocol: as §1, §2, §3

| solubility in distilled water (observation) [1] | CMC % (wt/wt) [2] | Structure (SMILES) |
| --- | --- | --- |
| did not go into solution | 20% (wt/wt) | C=C[C@@]1(C)CC(=O)[C@]2(O)[C@@]3(C)[C@@H](O)CCC(C)(C)[C@@H]3[C@H](O)[C@H](OC(C)=O)[C@@]2(C)O1 [ForsLean 95%, forskolin] |
| did not go into solution | 14.50% (wt/wt) | COc1cc(/C=C/c2ccc(O)cc2)cc(OC)c1 [Pterostilbene 99%, pterostilbene] |
